Structures are written as SMILES. Like-named read-outs stand apart in the source and are kept apart here.

Assay [1] deals with eIF2α phosphorylation (eIF2•GTP•Met-tRNAi ternary complex; HRI activation). Nature of the assay: surrogate dual luciferase eIF2α phosphorylation (ternary complex) assay. In kind it is cell-based, human. The conditions noted are these: Homo sapiens; surrogate eIF2α phosphorylation assay, Table 3; read-out: Emax (F/R). A digest of the protocol: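 Cell-based dual luciferase reporter: firefly luciferase behind the ATF-4 5′UTR (uORFs) and renilla luciferase behind a uORF-free 5′UTR, read with a dual glow kit. Activity given as firefly/renilla ratio normalised to DMSO wells set at 1, with a rising ratio reflecting reduced ternary complex (e.g., HRI activation).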

For assay [2], the system named is CRL-2813 human melanoma cancer cells. As to the kind of experiment: cell proliferation (SRB) assay, CRL-2813. In kind it is cell-based. The settings on record: Homo sapiens, CRL2813. A digest of the protocol:
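Cells exposed 5 days to 0.5–20 μM compound, then TCA-fixed and stained with sulforhodamine B. Growth as 100×[(T−T0)/(C−T0)] from absorbance of treated, control and time-zero cultures; cell death as 100×[(T−T0)/T0] where T is below T0.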

The next assay relates to NIH/3T3 fibroblast cells. As to the kind of experiment: cell proliferation (SRB) assay, NIH/3T3. The settings on record: for IC50: Mus musculus, NIH3T3, NIH/3T3, Table 8, Mean IC50±S.E.M., read-out: IC50 of compounds. In kind it is cell-based. On the procedure: (§1) Cells were seeded in 96-well plates and maintained for 5 days in the presence of 0.5 to 20 μM of individual compound, and cell proliferation was measured by the sulforhodamine B (SRB) assay as described previously (see, for example, Palakurthi, S. S. et al. Cancer Research 2000, 60(11), 2919-2925). Briefly, at the end of a 5-day treatment, cells were fixed in 10% cold trichloroacetic acid. Cell number was estimated by measuring the remaining bound dye of sulforhodamine B after washing. The percentage of growth was calculated by using the equation: 100×[(T−T0)/(C−T0)], where T and C represent the absorbance in treated and control cultures at Day 5, and T0 at time zero, respectively. If T is less than T0, cell death has occurred and can be calculated from 100×[(T−T0)/T0].
The experiments were conducted in triplicate, and each experiment was independently performed three times. IC50=effective dose of drug that inhibit cell proliferation by 50%. Data are shown as Mean±S.E.M.
Compounds I-6p, I-17, I-18 and I-20 were tested in NIH/3T3 fibroblast and CRL-2813 melanoma cancer cells in cell proliferation assay. The experiment was conducted in triplicate and each experiment was independently performed three times. Data are shown as Mean IC50±S.E.M.

The test system of assay [3] is CRL-2813 human melanoma cancer cells transfected with HRI-targeting or non-targeting siRNA. Nature of the assay: cell proliferation (SRB) assay after HRI knockdown. The settings on record: CRL-2813 cells, FIG. 10. In kind it is cell-based. The method, then: as §1
Cell proliferation is a meaningful read-out for determining the specificity of a compound as it captures both on-target and off-target effects of the compound under study. […] If these compounds specifically activate HRI and this activity is required for the inhibition of cell proliferation, then reducing the expression of HRI should blunt their effect on cell proliferation. For this purpose, expression of HRI was knocked down in CRL-2813 human melanoma (about 70% knockdown efficiency) and MCF-7 human breast cancer cells (about 90% knockdown efficiency). These two cell lines were chosen because the HRI knockdown efficiency is lower in CRL-2813 than in MCF-7 cells providing a sort of dose-response data that correlates knockdown efficiency with the resistance of cells to inhibition of cell proliferation. […] Referring to FIG. 5A, CRL-2813 human melanoma cancer cells, and (FIG. 5B) MCF-7 human breast cancer cells were transfected with HRI targeted or non-targeted siRNA, treated with the indicated concentrations of I-6p and cell proliferation was measured by SRB assay. Calculated IC50 for all four compounds tested in CRL-2813 human melanoma cancer cells and MCF-7 human breast cancer cells transfected with non-target siRNA control (NTC) or HRI is shown in FIG. 5C and FIG. 5D, respectively. The experiment was conducted in triplicate and each experiment was independently performed three times. Data are shown as Mean±S.E.M. *NTC=non-target siRNA control.
Referring to FIG. 8, CRL-2813 human melanoma cancer cells were transfected with HRI targeted or non-targeted siRNA, treated with the indicated concentrations of (A) I-14, (B) I-15, (C) III-4 and (D) III-5 and cell proliferation was measured by SRB assay. Calculated IC50 for all four compounds tested in CRL-2813 human melanoma cancer cells transfected with non-target siRNA control (NTC) or HRI is shown in (E). The experiment was conducted in triplicate and each experiment was independently performed three times. Data are shown as Mean±S.E.M. *NTC=non-target siRNA control, IC50=effective dose of drug that inhibit cell proliferation by 50%.
In general, if the affinity of compounds for their molecular target is increased this should result in higher specificity of the compounds in the cell proliferation assay. […] These five compounds, two with average and three with high potency, were tested in cell proliferation assay using CRL-2813 cells transfected with non-targeted siRNA or HRI-targeted siRNA as described above.

Where [4] appears, read: CRL-2813, Table 8, Mean IC50±S.E.M., read-out: IC50 of compounds.
[5] abbreviates: cell proliferation assay, Table 3, cell line not named, values equal CRL-2813 values of Table 8, read-out: IC50.

As to `O=C(Nc1cccc(C(F)(F)F)c1)NC1CCC(Oc2ccc(C(F)(F)F)cc2)CC1` (centres unmarked) [Compound I-18, 1-(4-(4-(Trifluoromethyl)phenoxy)cyclohexyl)-3-(3-(trifluoromethyl)phenyl)urea], the maximal fold induction in assay [1] was 25.1. Moreover, the IC50 (commonly the point on the concentration scale where inhibition reaches its midpoint) in assay [2] (setting [4]) was found to be 460 ± 100 nM; in assay [2] (setting [5]), 460 ± 100 nM; in the assay on NIH/3T3 fibroblast cells, 3400 ± 100 nM. For the same compound, the “fold higher potency on cancer cells compared to non-transformed cells” value in the assay on NIH/3T3 fibroblast cells (CRL-2813 human melanoma vs NIH-3T3 fibroblast) was “highest discrimination between cancer and non-cancerous cells”. Also, the “fold higher IC50 values in cells transfected with HRI-targeting siRNA vs. non-targeting siRNA” value in assay [3] is given as about 7.5 fold.
`O=C(Nc1cccc(C(F)(F)F)c1)NC1CCC(Oc2cccc(C(F)(F)F)c2)CC1` (centres unmarked) [Compound I-20, 1-(4-(3-(Trifluoromethyl)phenoxy)cyclohexyl)-3-(3-(trifluoromethyl)phenyl)urea]: the maximal fold induction in assay [1] was 26. Also, the IC50 in assay [2] (setting [4]) is 1300 ± 100 nM; in assay [2] (setting [5]) it was 1300 ± 100 nM; in the assay with NIH/3T3 fibroblast cells, 3300 ± 200 nM. In assay [3], the “fold higher IC50 values in cells transfected with HRI-targeting siRNA vs. non-targeting siRNA” value was about 5 fold.

The record behind these values is patent US20160318856A1, “Substituted Urea eIF2alpha Kinase Activators” (THE BRIGHAM AND WOMEN'S HOSPITAL, INC., priority 2013, published 2016).
